The source made the active and inactive calls. The calls are words filed in the database; no cut-off is given here.
What was measured:
HGC-27 [1] = test: Antiproliferative activity against human HGC-27 cells assessed as reduction in cell viability after 24 hrs by MTT assay; type: functional, cell-based; details: HGC-27, 24 h
MGC-803 [2] = test: Antiproliferative activity against human MGC-803 cells assessed as EdU positive cells at 0.5 to 4 uM for 24 hrs by y EdU assay (reference value: 65.2%); type: functional; details: dose 0.5-4 µM
MGC-803 [3] = test: Inhibition of cell migration in human MGC-803 cells assessed as reduction in migration at 0.5 to 4 uM for 24 hrs by wound healing assay; type: functional, cell-based; details: dose 0.5-4 µM, DDE = dose-dependent effect
MGC-803 [4] = test: Inhibition of cell migration in human MGC-803 cells assessed as reduction in migration at 0.5 to 4 uM for 24 hrs by transwell migration assay; type: functional, cell-based; details: dose 0.5-4 µM, DDE = dose-dependent effect
MGC-803 [5] = test: Inhibition of cell invasion in human MGC-803 cells assessed as reduction in invasion at 0.5 to 4 uM for 24 hrs by transwell invasion assay; type: functional, cell-based; details: dose 0.5-4 µM, DDE = dose-dependent effect
HGC-27 [6] = test: Down regulation of MMP9 expression in human HGC-27 cells at 2 to 16 uM after 24 hrs by western blot analysis; type: functional, cell-based; details: dose 2-16 µM, DDE = dose-dependent effect
MGC-803 [7] = test: Induction of apoptosis in human MGC-803 cells assessed as increase in apoptotic cells at 1.25 to 10 uM after 48 hr by AnnexinV-FITC/PI staining based flow cytometric analysis (reference value: 2.71%); type: functional, cell-based; details: dose 1.25-10 µM, DDE = dose-dependent effect
HGC-27 [8] = test: Induction of mitochondrial membrane potential loss in human HGC-27 cells assessed as TMRE positive cells at 2 to 16 uM by TRME staining based flow cytometric analysis (reference value: 5.8%); type: functional, cell-based; details: dose 2-16 µM, DDE = dose-dependent effect
MGC-803 [9] = test: Induction of apoptosis in human MGC-803 cells assessed as reduction in BCl2 expression at 1.25 to 10 uM by western blot analysis; type: functional, cell-based; details: dose 1.25-10 µM, DDE = dose-dependent effect
MGC-803 [10] = test: Induction of apoptosis in human MGC-803 cells assessed as decrease in cytochrome C expression at 1.25 to 10 uM by western blot analysis; type: functional, cell-based; details: dose 1.25-10 µM, DDE = dose-dependent effect
MGC-803 [11] = test: Induction of apoptosis in human MGC-803 cells assessed as increase in cleaved caspase-3 expression at 1.25 to 10 uM by western blot analysis; type: functional, cell-based; details: dose 1.25-10 µM, DDE = dose-dependent effect
HGC-27 [12] = test: Induction of apoptosis in human HGC-27 cells assessed as increase in cleaved caspase-3 expression at 2 to 16 uM by western blot analysis; type: functional, cell-based; details: dose 2-16 µM, DDE = dose-dependent effect
MGC-803 [13] = test: Induction of apoptosis in human MGC-803 cells assessed as increase in cleaved caspase-9 expression at 1.25 to 10 uM by western blot analysis; type: functional, cell-based; details: dose 1.25-10 µM, DDE = dose-dependent effect
MGC-803 [14] = test: Inhibition of PI3K/AKT/mTOR signalling pathway in human MGC-803 cells assessed as reduction in PI3K phosphorylation at 1.25 to 10 uM by western blot analysis; type: cell-based; details: dose 1.25-10 µM, DDE = dose-dependent effect
HGC-27 [15] = test: Inhibition of PI3K/AKT/mTOR signalling pathway in human HGC-27 cells assessed as reduction in AKT phosphorylation at 2 to 16 uM by western blot analysis; type: cell-based; details: dose 2-16 µM, DDE = dose-dependent effect
[16] = MRT(0 to t) in Sprague-Dawley rat at 50 mg/kg, ip measured upto 24 hrs by LC-MS analysis; type: ADME, organism-based; details: in vivo
MGC-803 [17] = test: Antitumor activity against human MGC-803 cells xenografted in immunodeficient nude mouse assessed as tumor volume at 50 mg/kg, ip administered for 3 weeks (reference value: 1039.6 mm3); type: functional
MGC-803 [18] = test: Antitumor activity against human MGC-803 cells xenografted in immunodeficient nude mouse assessed as increase in survival at 50 mg/kg, ip administered for 3 weeks; type: functional, organism-based
[19] = Toxicity in immunodeficient nude mouse xenografted with human MGC-803 cells assessed as reduction in body weight at 50 mg/kg, ip administered for 3 weeks relative to control; type: organism-based; details: in vivo, 504 h

MRT last at 24 h [16]: 3.3 h
Structure (SMILES): Oc1c(Cc2nccc3cc4c(cc23)OCO4)ccc2c1OCO2
IC50 (HGC-27 [1]): 7.6 µM | Activity (MGC-803 [2]): 19.9% | inhibition (MGC-803 [3]): Dde | inhibition (MGC-803 [4]): Dde | inhibition (MGC-803 [5]): Dde | Activity (HGC-27 [6]): Dde | Activity (MGC-803 [7]): Dde | Activity (HGC-27 [8]): Dde | Activity (MGC-803 [9]): Dde | Activity (MGC-803 [10]): Dde | Activity (MGC-803 [11]): Dde | Activity (HGC-27 [12]): Dde | Activity (MGC-803 [13]): Dde | inhibition (MGC-803 [14]): Dde | inhibition (HGC-27 [15]): Dde | Activity (MGC-803 [17]): 440.1 mm3 | Activity (MGC-803 [18]): Active | Activity [19]: Non-Toxic

— ChEMBL document CHEMBL5143625, “Isolation, synthesis and bioactivity evaluation of isoquinoline alkaloids from Corydalis hendersonii Hemsl. against gastric cancer in vitro and in vivo” (Bioorg Med Chem, 2022)
